In patent publication US8192962B2, “Processes for detecting toxic substances” (Daikin Industries, Ltd., priority 2001, dated 2012):

Test system: Genes belonging to other category
Assay: DNA chip mRNA expression in yeast, genes belonging to other category (Table 9)
Assay type: cell-based, Saccharomyces cerevisiae S288C
Outline: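 First, S288C yeast grown in YPD at 25° C. are dosed in log phase with one toxicant (growth-inhibiting, not lethal) for 2 h. Next, total RNA is extracted and poly(A) mRNA isolated and reverse-transcribed with Cy3/Cy5-dUTP. Finally, whole-genome chip fluorescence is read relative to unexposed cells.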

With `CCCCC[C@H](O)CC(=O)CCc1ccc(O)c(OC)c1` [(13), gingerol] the “The level of expressed mRNA in the presence of chemical substance/The level of expressed mRNA in the absence of chemical substance” value (yeast gene YKL041W) was 1.3, the “The level of expressed mRNA in the presence of chemical substance/The level of expressed mRNA in the absence of chemical substance” value (yeast gene YKL096W) was 0.1 and the “The level of expressed mRNA in the presence of chemical substance/The level of expressed mRNA in the absence of chemical substance” value (yeast gene YKL139W) was 1.6. For the same compound, the “The level of expressed mRNA in the presence of chemical substance/The level of expressed mRNA in the absence of chemical substance” value (yeast gene YKL165C) was 3.2, the “The level of expressed mRNA in the presence of chemical substance/The level of expressed mRNA in the absence of chemical substance” value (yeast gene YKL190W) was 1.3 and the “The level of expressed mRNA in the presence of chemical substance/The level of expressed mRNA in the absence of chemical substance” value (yeast gene YKL193C) was 2.1. For the same compound, the “The level of expressed mRNA in the presence of chemical substance/The level of expressed mRNA in the absence of chemical substance” value (yeast gene YKR014C) was 1.5, the “The level of expressed mRNA in the presence of chemical substance/The level of expressed mRNA in the absence of chemical substance” value (yeast gene YLL051C) was 1.3 and the “The level of expressed mRNA in the presence of chemical substance/The level of expressed mRNA in the absence of chemical substance” value (yeast gene YLR090W) was 1.7. The “The level of expressed mRNA in the presence of chemical substance/The level of expressed mRNA in the absence of chemical substance” value (yeast gene YLR093C) was 1.3, the “The level of expressed mRNA in the presence of chemical substance/The level of expressed mRNA in the absence of chemical substance” value (yeast gene YLR120C) was 4.8 and the “The level of expressed mRNA in the presence of chemical substance/The level of expressed mRNA in the absence of chemical substance” value (yeast gene YLR136C) was 2.9. The “The level of expressed mRNA in the presence of chemical substance/The level of expressed mRNA in the absence of chemical substance” value (yeast gene YLR250W) was 1.2, the “The level of expressed mRNA in the presence of chemical substance/The level of expressed mRNA in the absence of chemical substance” value (yeast gene YLR251W) was 1.7 and the “The level of expressed mRNA in the presence of chemical substance/The level of expressed mRNA in the absence of chemical substance” value (yeast gene YLR327C) was 2.8. The “The level of expressed mRNA in the presence of chemical substance/The level of expressed mRNA in the absence of chemical substance” value (yeast gene YMR004W) was 2.2, the “The level of expressed mRNA in the presence of chemical substance/The level of expressed mRNA in the absence of chemical substance” value (yeast gene YMR051C) was 1.3 and the “The level of expressed mRNA in the presence of chemical substance/The level of expressed mRNA in the absence of chemical substance” value (yeast gene YMR104C) was 1.5. The “The level of expressed mRNA in the presence of chemical substance/The level of expressed mRNA in the absence of chemical substance” value (yeast gene YMR139W) was 1.6, the “The level of expressed mRNA in the presence of chemical substance/The level of expressed mRNA in the absence of chemical substance” value (yeast gene YMR219W) was 2.1 and the “The level of expressed mRNA in the presence of chemical substance/The level of expressed mRNA in the absence of chemical substance” value (yeast gene YMR226C) was 1.6. For the same compound, the “The level of expressed mRNA in the presence of chemical substance/The level of expressed mRNA in the absence of chemical substance” value (yeast gene YMR262W) was 1.7, the “The level of expressed mRNA in the presence of chemical substance/The level of expressed mRNA in the absence of chemical substance” value (yeast gene YMR275C) was 2.1 and the “The level of expressed mRNA in the presence of chemical substance/The level of expressed mRNA in the absence of chemical substance” value (yeast gene YMR276W) was 1.9. The “The level of expressed mRNA in the presence of chemical substance/The level of expressed mRNA in the absence of chemical substance” value (yeast gene YMR314W) was 2.6, the “The level of expressed mRNA in the presence of chemical substance/The level of expressed mRNA in the absence of chemical substance” value (yeast gene YNL006W) was 2.3 and the “The level of expressed mRNA in the presence of chemical substance/The level of expressed mRNA in the absence of chemical substance” value (yeast gene YNL007C) was 2.1. For the same compound, the “The level of expressed mRNA in the presence of chemical substance/The level of expressed mRNA in the absence of chemical substance” value (yeast gene YNL093W) was 2.2, the “The level of expressed mRNA in the presence of chemical substance/The level of expressed mRNA in the absence of chemical substance” value (yeast gene YNL214W) was 1.2 and the “The level of expressed mRNA in the presence of chemical substance/The level of expressed mRNA in the absence of chemical substance” value (yeast gene YNL223W) was 2.0. For the same compound, the “The level of expressed mRNA in the presence of chemical substance/The level of expressed mRNA in the absence of chemical substance” value (yeast gene YNL333W) was 2.2, the “The level of expressed mRNA in the presence of chemical substance/The level of expressed mRNA in the absence of chemical substance” value (yeast gene YNR007C) was 1.5 and the “The level of expressed mRNA in the presence of chemical substance/The level of expressed mRNA in the absence of chemical substance” value (yeast gene YNR010W) was 2.8. For the same compound, the “The level of expressed mRNA in the presence of chemical substance/The level of expressed mRNA in the absence of chemical substance” value (yeast gene YNR035C) was 1.7, the “The level of expressed mRNA in the presence of chemical substance/The level of expressed mRNA in the absence of chemical substance” value (yeast gene YOL013C) was 1.8 and the “The level of expressed mRNA in the presence of chemical substance/The level of expressed mRNA in the absence of chemical substance” value (yeast gene YOL016C) was 3.0. For the same compound, the “The level of expressed mRNA in the presence of chemical substance/The level of expressed mRNA in the absence of chemical substance” value (yeast gene YOL104C) was 0.6, the “The level of expressed mRNA in the presence of chemical substance/The level of expressed mRNA in the absence of chemical substance” value (yeast gene YOR117W) was 2.3 and the “The level of expressed mRNA in the presence of chemical substance/The level of expressed mRNA in the absence of chemical substance” value (yeast gene YOR149C) was 1.3. For the same compound, the “The level of expressed mRNA in the presence of chemical substance/The level of expressed mRNA in the absence of chemical substance” value (yeast gene YOR181W) was 1.2, the “The level of expressed mRNA in the presence of chemical substance/The level of expressed mRNA in the absence of chemical substance” value (yeast gene YOR185C) was 2.2 and the “The level of expressed mRNA in the presence of chemical substance/The level of expressed mRNA in the absence of chemical substance” value (yeast gene YOR355W) was 1.1. For the same compound, the “The level of expressed mRNA in the presence of chemical substance/The level of expressed mRNA in the absence of chemical substance” value (yeast gene YOR381W) was 1.7, the “The level of expressed mRNA in the presence of chemical substance/The level of expressed mRNA in the absence of chemical substance” value (yeast gene YOR383C) was 1.2 and the “The level of expressed mRNA in the presence of chemical substance/The level of expressed mRNA in the absence of chemical substance” value (yeast gene YPL018W) was 2.2. For the same compound, the “The level of expressed mRNA in the presence of chemical substance/The level of expressed mRNA in the absence of chemical substance” value (yeast gene YPL089C) was 1.3, the “The level of expressed mRNA in the presence of chemical substance/The level of expressed mRNA in the absence of chemical substance” value (yeast gene YPL149W) was 2.3 and the “The level of expressed mRNA in the presence of chemical substance/The level of expressed mRNA in the absence of chemical substance” value (yeast gene YPL203W) was 1.5. For the same compound, the “The level of expressed mRNA in the presence of chemical substance/The level of expressed mRNA in the absence of chemical substance” value (yeast gene YPL255W) was 0.6 and the “The level of expressed mRNA in the presence of chemical substance/The level of expressed mRNA in the absence of chemical substance” value (yeast gene YPR108W) was 2.6.
